In patent publication US20200246308A1, “SYNERGISTIC COMBINATIONS OF UROLITHINS A AND B FOR IMPROVING COGNITIVE CAPACITY OR COGNITIVE FUNCTION” (Natreon, Inc., priority 2018, published 2020):

Legend:
[1] = system: scopolamine induced dementia in rats; experiment: Y-maze test, scopolamine induced dementia in rats (Study 2); type: in vivo, Charles Foster male albino rats; conditions: Donepezil 5 mg/kg i.p.; shilajit effect at 100 mg/kg
Protocol: 2.2. Animal subjects. Inbred Charles Foster male albino rats (130-180 g) were obtained from the Central Animal House, Institute of Medical Sciences (IMS), Banaras Hindu University (BHU), Varanasi, Uttar Pradesh, India. These were certified to be pathogen free and were randomly distributed into different experimental groups. The rats were kept in the departmental animal house at an ambient temperature of 25±1° C. and 45-55% RH, with a 12-h light/dark cycle (lights on 7:00-19:00 h). The animals had free access to standard pellet chow and tap water ad libitum. Experiments were conducted between 9:00 and 14:00 h. The behavioral testing was done during the light phase. Animals were housed in groups and acclimatized for at least one week before using them for experiments. Animals were transported in cage covered by dark cloth to the experimental room. The experimental procedures were in compliance with National Institutes of Health Guide for Care and Use of Laboratory Animals.
The rats were pretreated orally for seven days through an orogastric tube with experimental drugs (10, 25 and 50 mg/kg once daily) suspended in 0.3% carboxymethyl cellulose (CMC). The treatment was continued until the end of the experiment procedures (Singh, G. K., Garabadu, D., Muruganadam, A. V., Joshi, V. K., Krishnamurthy, S., “Antidepressant activity of Asparagus racemosus in animal models of depression,” Pharmacol. Biochem. Behav. (2009) 91(3):283-90). Scopolamine was dissolved in water for injection and administered on day 7 after one hour of drug treatment administration. Donepezil (5 mg/kg; i.p.)
was used as standard drug. On day 8 the behavioral experiment was performed. The animals were sacrificed and hippocampus was micro-dissected using the coordinates of the rat brain atlas. All control group animals were treated with the 0.3 ml of vehicle (0.3% CMC suspension) equal to the volume of experimental drugs (Ohj a, R., et al., “Asparagus recemosus enhances memory and protects against amnesia in rodent models,” Brain Cogn. (2010) October; 74(1): 1-9).
Spatial recognition memory, general exploratory behavior, and anxiety-like behavior were assessed by the Y-maze test. Y-maze consists of three similar arms of dimension 50 cm long, 16 cm wide and 32 cm high. In the first trial, the novel arm was blocked and the animal was allowed to move for 15 min in other two arms. In the second trial, the novel arm was opened and the animal was allowed to move for 5 min in all three arms after 4 h of the first trial. The total number of entries in all arms (for 5 min of trial-1 and trial-2) is indicative of general exploration attitude (curiosity). The % entries in known and novel arms for the 5 min period of trial 2 were considered as a measure of spatial recognition memory. Coping strategy to the novel environment was estimated by the percentage of the ratio of time spent in the novel arm to time spent in all arms and in the center of the apparatus during trial 2. The decrease in the coping behavior to the novel environment was considered as an increase in anxiety-like behavior (Krishnamurthy, S., et al., “Risperidone ameliorates post-traumatic stress disorder-like symptoms in modified stress re-stress model,” Neuropharmacology (2013) 75:62-77).

[2] = system: acetylcholine (ACh) level in HIP tissue; experiment: Acetylcholine level in hippocampal tissue, Amplex Red kit (Example 9D); type: in vivo, Male Wistar rats; conditions: p.o. 7 days: B 50, A 50, Donepezil 3, B:A 10:50 and 50:50, Shilajit 50 mg/kg
Protocol: Drug solution was freshly prepared in 0.3% CMC and administered by oral gavage once a day, for a period of 7 days. Briefly, the whole experiment was conducted for 8 days. Scopolamine (1 mg/kg), a muscarinic receptor antagonist, was dissolved in normal saline (0.9% NaCl) and administered intraperitoneally 1 h after drugs administration on seventh day.
Sample preparation: The animals were killed by decapitation and the brain tissues were dissected out in ice-cold conditions and stored at −80° C. until use. Tissue was homogenized in 1.0 ml of 0.1M perchloric acid with a Potter-Elvehjem homogenizer. The homogenate was kept in the polypropylene tubes for 15 min after which 40 μl of 4M potassium acetate was added to adjust the pH to 4.0 followed by centrifugation for 15 min at 4000×g. Supernatant was used to estimate acetylcholine and AChE activities.
Samples were prepared as in Example 9C. The amount of acetylcholine in brain tissues was measured using Amplex red assay kit (Molecular Probes, Inc., USA). An acetylcholine standard curve was used in each experiment. Briefly, the reactions are initiated by adding 0.1 ml of control (10 μM H2O2) and tissue homogenates were taken in two separate polypropylene tubes and then 0.1 ml working solution of 400 μM Amplex Red reagent containing 2 U/mL HRP, 0.2 U/mL choline oxidase and 1 U/mL acetylcholinesterase were added to each tube. After incubation for 45 min, the fluorescence was recorded with the help of spectrofluorometer at 530 nm excitation and 590 nm emission wavelengths. The protein content was determined using standard protocol (Lowry, et al., 1951).
Statistical analyses: The results were expressed as means±Standard Error mean (SEM). The intergroup variation was measured by one-way ANOVA followed by Student-Newman-Keuls test. Two-way followed by Bonferroni test was employed to discover the intergroup variation in Y maze test considering groups and arms as two independent variables. Statistical analysis was done by using Graph Pad prism version 5 (San Diego, Calif.). A level of p<0.05 was accepted as statistically significant.

COc1cc2c(cc1OC)C(=O)C(CC1CCN(Cc3ccccc3)CC1)C2 (centres unmarked) [Donepezil, reference compound]
Scopolamine-induced altered exploratory behavior (total arm entries) [1]: reversed this activity
Scopolamine-induced decrease in ACh level in HIP tissue [2]: the same as 3-OH-DBP (B) (50 mg/kg) group
